From ChEMBL document CHEMBL1201862, “PubChem BioAssay data set” (2004)
Active and inactive are the calls of the source.

Experiments:
[1] = target: T1, E3 ubiquitin-protein ligase XIAP (Homo sapiens, UniProt P98170); test: small molecules displacing peptide from XIAP – biochemical, IAP family, fluorescence polarization (AID 1018); assay type: functional
[2] = target: T1, E3 ubiquitin-protein ligase XIAP; test: Counter Screen using XIAP-Bir3 for Chemical Antagonists of Bir1/2 domains of IAP-family anti-apoptotic proteins. [Related pubchem assays (depositor defined):AID1018, AID1449, AID1514, AID1638, AID1749, AID1750, AID488957, AID488963]
[3] = reduction of Shn3 3'UTR-driven luciferase in osteoblasts – cell-based, Clone20 osteoblasts, firefly luciferase, cherry-picked, dose response (AID 624132); assay type: functional;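 note: firefly luciferase luminescence from reporter carrying the Shn3 3'UTR in osteoblasts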
[4] = non-specific 3'UTR reporter inhibition in Clone20-Shn3RL – cell-based, Renilla luciferase, cherry-picked, counter-screen for Shn3 inhibitor project, dose response (AID 624133); assay type: functional
[5] = tested on: HEK293; test: inhibition of NOD1-driven NF-kB reporter – cell-based, luminescence, uHTS, primary screen (AID 1578); assay type: functional; conditions: Homo sapiens
[6] = tested on: HEK293; test: NOD2 signaling inhibitors in MDP-stimulated cells, cell-based, uHTS, luminescence (AID 2001); assay type: functional; conditions: Homo sapiens
[7] = target: Nucleotide-binding oligomerization domain-containing protein 2 (Homo sapiens, UniProt Q9HC29); test: inhibition of NOD2-driven NF-kB reporter – cell-based, luminescence, uHTS, HEK293 (AID 1566); assay type: functional
[8] = tested on: HEK293; test: cells; assay type: functional, cell-based; conditions: Homo sapiens
[9] = tested on: HEK293; test: cells; assay type: functional, cell-based; conditions: Homo sapiens; remark: listed apart in the source
[10] = loss of viability in HepG2 cells – cell-based, CellTiter-Glo, cherry-picked, cytotoxicity control for Shn3 inhibitor project, dose response (AID 624134); assay type: functional
[11] = tested on: HEK293; test: cells; assay type: functional, cell-based; conditions: Homo sapiens; remark: listed apart in the source
[12] = tested on: Streptococcus sp. 'group A'; test: Streptococcus pyogenes SK(-)GAS viability under kanamycin – luminescence, BacTiterGlo, confirmation, counter-screen for streptokinase expression inhibitor project, dose response (AID 1900); assay type: functional, organism-based
[13] = tested on: Streptococcus; test: GAS UMAA2166 growth inhibition – luminescence, BacTiterGlo, counter-screen for streptokinase expression inhibitor project, dose response (AID 1915); assay type: functional, organism-based;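 note: potency for reduction of bacterial viability or growth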
[14] = target: T2, Streptokinase A (Streptococcus pyogenes serotype M1, UniProt P10520); test: viability-normalized secreted streptokinase activity reduction – plasminogen activation absorbance, OD405, dose response (AID 1914); assay type: functional, Streptococcus pyogenes M1 GAS;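 note: secreted streptokinase activity via plasminogen activation per viability signal from cell pellet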
T2 sequence (P10520 whole entry): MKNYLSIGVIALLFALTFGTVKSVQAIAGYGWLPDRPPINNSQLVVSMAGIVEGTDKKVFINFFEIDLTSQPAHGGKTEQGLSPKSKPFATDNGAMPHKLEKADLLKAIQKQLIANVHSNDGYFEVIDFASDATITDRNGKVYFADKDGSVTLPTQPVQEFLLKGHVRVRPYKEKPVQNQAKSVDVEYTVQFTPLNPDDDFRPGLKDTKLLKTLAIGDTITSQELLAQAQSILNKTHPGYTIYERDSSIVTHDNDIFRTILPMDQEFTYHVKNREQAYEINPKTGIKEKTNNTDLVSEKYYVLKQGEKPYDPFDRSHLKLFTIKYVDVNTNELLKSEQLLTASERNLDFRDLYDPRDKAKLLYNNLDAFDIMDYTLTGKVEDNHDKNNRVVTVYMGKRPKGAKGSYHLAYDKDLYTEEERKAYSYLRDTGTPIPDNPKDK

[15] = target: Troponin, cardiac muscle (Homo sapiens, UniProt P19429+P45379+P63316); test: Fluorescence-based biochemical high throughput dose response assay for activators of the calcium sensitivity of cardiac Regulated Thin Filaments (RTF). [Related pubchem assays (depositor defined):AID493008, AID493018, AID504382, AID504383]; assay type: protein-complex assay
[16] = Counterscreen for AddAB inhibitors: absorbance-based bacterial cell-based high throughput dose response assay for inhibitors of bacterial viability. [Related pubchem assays (depositor defined):AID435030, AID449728, AID449731, AID488942, AID488955, AID488956]; assay type: functional
[17] = target: T3, Exodeoxyribonuclease V (Escherichia coli (strain K12), UniProt P04993+P07648+P08394); test: RecBCD inhibition via phage-restricted bacterial growth – absorbance, V66 E. coli, mutant T4 phage, counter-screen for AddAB inhibitor project, dose response (AID 492957); assay type: functional, cell-based, Escherichia coli str. K-12 substr. MG1655
T3 sequence (P04993 whole entry): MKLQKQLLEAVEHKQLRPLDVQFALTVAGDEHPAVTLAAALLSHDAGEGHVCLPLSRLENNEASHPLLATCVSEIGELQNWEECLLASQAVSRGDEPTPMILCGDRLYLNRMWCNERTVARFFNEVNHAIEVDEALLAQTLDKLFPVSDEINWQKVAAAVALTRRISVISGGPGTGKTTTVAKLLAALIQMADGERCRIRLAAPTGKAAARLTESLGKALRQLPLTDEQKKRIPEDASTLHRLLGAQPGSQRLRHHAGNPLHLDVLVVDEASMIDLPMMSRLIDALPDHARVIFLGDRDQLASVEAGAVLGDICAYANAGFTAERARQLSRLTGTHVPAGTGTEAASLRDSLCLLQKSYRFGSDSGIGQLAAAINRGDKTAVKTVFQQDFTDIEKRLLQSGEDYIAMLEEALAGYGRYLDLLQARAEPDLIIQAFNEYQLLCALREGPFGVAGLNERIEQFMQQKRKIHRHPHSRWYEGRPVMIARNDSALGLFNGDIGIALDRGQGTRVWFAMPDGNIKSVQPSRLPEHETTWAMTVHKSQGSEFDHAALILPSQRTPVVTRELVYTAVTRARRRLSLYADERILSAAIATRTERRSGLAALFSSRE
T3 sequence (P07648 whole entry): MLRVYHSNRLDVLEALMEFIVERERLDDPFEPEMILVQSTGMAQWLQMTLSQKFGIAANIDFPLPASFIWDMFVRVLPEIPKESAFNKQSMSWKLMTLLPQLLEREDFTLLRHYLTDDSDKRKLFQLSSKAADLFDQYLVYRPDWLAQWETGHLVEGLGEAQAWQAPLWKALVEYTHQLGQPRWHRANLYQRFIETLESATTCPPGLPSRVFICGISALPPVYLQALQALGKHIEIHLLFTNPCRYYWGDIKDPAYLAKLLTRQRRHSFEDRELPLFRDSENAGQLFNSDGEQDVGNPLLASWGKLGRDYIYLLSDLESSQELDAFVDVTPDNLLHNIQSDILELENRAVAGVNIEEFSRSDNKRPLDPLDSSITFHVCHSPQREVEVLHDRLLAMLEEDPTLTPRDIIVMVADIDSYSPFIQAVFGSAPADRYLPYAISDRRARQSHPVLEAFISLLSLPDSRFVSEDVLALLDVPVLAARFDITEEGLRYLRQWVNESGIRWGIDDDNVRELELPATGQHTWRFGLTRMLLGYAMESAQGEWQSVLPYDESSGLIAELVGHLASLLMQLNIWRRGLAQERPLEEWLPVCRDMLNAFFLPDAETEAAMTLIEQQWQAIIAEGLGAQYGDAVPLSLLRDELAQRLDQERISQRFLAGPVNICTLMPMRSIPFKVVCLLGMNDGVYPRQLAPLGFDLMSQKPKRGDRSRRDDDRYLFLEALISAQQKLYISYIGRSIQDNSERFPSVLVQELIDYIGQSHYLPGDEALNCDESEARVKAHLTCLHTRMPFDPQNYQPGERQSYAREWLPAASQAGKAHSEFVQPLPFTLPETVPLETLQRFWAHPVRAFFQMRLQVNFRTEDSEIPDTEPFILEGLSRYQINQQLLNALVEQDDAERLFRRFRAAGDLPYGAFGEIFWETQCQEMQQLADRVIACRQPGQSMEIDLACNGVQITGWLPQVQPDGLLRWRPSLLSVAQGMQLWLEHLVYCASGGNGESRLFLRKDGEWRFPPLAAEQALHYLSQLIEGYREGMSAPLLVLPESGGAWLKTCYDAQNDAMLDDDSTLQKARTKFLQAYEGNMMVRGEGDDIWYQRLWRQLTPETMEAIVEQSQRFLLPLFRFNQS
T3 sequence (P08394 whole entry): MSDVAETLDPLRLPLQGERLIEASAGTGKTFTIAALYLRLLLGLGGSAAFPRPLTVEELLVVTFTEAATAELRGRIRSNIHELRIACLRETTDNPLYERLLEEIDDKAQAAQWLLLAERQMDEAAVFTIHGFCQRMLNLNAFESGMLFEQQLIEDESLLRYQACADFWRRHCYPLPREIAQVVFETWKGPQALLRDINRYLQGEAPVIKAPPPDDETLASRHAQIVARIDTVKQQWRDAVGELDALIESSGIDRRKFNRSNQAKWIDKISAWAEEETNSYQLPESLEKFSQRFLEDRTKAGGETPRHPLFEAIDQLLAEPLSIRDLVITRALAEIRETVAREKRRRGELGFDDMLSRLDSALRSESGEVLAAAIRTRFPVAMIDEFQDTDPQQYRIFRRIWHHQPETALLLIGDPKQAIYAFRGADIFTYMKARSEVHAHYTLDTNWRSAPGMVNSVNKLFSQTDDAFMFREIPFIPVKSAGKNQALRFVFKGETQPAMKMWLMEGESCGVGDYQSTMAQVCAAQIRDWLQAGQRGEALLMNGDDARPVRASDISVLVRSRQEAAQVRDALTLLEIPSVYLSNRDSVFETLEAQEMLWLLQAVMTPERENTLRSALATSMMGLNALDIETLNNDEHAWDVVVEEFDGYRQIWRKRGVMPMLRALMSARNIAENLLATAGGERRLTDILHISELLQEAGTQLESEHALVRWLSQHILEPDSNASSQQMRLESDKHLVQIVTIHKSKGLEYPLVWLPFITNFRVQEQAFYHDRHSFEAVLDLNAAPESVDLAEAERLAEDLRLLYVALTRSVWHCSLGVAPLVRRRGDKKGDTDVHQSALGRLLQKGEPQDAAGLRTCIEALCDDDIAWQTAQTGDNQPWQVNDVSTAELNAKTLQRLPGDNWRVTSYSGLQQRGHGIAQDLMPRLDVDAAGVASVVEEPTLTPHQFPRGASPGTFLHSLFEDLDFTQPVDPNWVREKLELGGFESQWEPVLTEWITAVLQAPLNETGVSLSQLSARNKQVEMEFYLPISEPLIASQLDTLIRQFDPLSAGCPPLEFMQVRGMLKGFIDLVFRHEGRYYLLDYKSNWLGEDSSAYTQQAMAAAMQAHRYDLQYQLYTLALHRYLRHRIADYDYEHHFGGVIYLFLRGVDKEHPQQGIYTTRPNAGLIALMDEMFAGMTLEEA

[18] = target: T4, Ubiquitin-conjugating enzyme E2 N (Homo sapiens, UniProt P61088); assay type: functional;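 note: Dose-response confirmation in a TR-FRET assay detecting UBC13-driven polyubiquitin chain formation, inhibition measured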
T4 sequence (P61088 whole entry): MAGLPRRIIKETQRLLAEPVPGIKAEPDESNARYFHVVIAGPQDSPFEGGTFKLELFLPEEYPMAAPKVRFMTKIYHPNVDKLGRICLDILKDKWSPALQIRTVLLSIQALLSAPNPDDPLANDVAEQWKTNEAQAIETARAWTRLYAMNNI

With `COc1ccc2c(c1)CCc1c(C(=O)Nc3cc(C)n(Cc4ccc(Cl)cc4)n3)noc1-2` the IC50 [1] was > 100 µM (not active) and the IC50 [2] was > 100 µM (inactive).
In the case of `Cc1nc2ccc(NC(=O)c3cccc(S(=O)(=O)N(C)c4ccccc4)c3)cc2s1`, the AC50 [3] is reported as 7.6 µM (active), the AC50 [4] is reported as 12.8 µM (active) and the EC50 [5] is reported as 7.57 µM (active). The IC50 [6] was 5.24 µM (active), the EC50 [7] was 7.35 µM (active) and the IC50 [8] was 6.11 µM (active). For the same compound, the IC50 [9] was 15.2 µM (active), the AC50 [10] was 58.6 µM (active) and the IC50 [11] was 9.65 µM (active).
With `CCN(CC)S(=O)(=O)c1cccc(C(=O)Nc2nc3cc4c(cc3s2)OCCO4)c1` the EC50 [12] was 1.08 µM (active), the EC50 [5] was 3.29 µM (active) and the IC50 [6] was 3.47 µM (active). The EC50 [7] was 4.53 µM (active), the IC50 [8] was 4.3 µM (active) and the EC50 [13] was 7.62 µM (active). The IC50 [9] was > 20 µM (inactive), the EC50 [14] was > 150 µM (not active) and the IC50 [11] was 9.78 µM (active).
With `C[C@@H](C(=O)N1CCNCC1)n1cc(CCCN=C(N)N)nn1` the EC50 [15] was > 71.5 µM (inactive).
In the case of `NC(=O)c1ccsc1NC(=O)COC(=O)c1ccc([N+](=O)[O-])o1`, the IC50 [16] is reported as > 39.5 µM (inactive) and the IC50 [17] is reported as > 119 µM (inactive).
With `CCC[C@@H](CN1CCC[C@H]1CN1C(N)=NC[C@@H]1Cc1ccccc1)N1C[C@@H](Cc2ccccc2)N(CCCC2CCCC2)C1=N` the EC50 [15] was > 71.4 µM (inactive) and the IC50 [18] was > 20 µM (inactive).
With `COc1cccc(/C(O)=C/C=N/c2cc(C)ccc2O)c1` the IC50 [1] was > 100 µM (not active) and the IC50 [2] was > 100 µM (inactive).
In the case of `CC/C(=N\NS(C)(=O)=O)c1ccccc1`, the IC50 [1] is reported as > 100 µM (not active) and the IC50 [2] is reported as > 100 µM (inactive).
